Test results taken from patent US11318232B2, “Compositions and methods for delivering drugs to a vessel wall” (Interface Biologics, Inc., priority 2018, dated 2022).

Test system: Rat Aortic Smooth Muscle Cells (RASMCs)
Conditions: drug spiked directly into growth media, 20 ng/mL

Compound: CO[C@H]1C[C@@H]2CC[C@@H](C)[C@@](O)(O2)C(=O)C(=O)N2CCCC[C@H]2C(=O)O[C@H]([C@H](C)C[C@@H]2CC[C@@H](O)[C@H](OC)C2)CC(=O)[C@H](C)/C=C(\C)[C@@H](O)[C@@H](OC)C(=O)[C@H](C)C[C@H](C)/C=C/C=C/C=C/1C [sirolimus]
- Normalized cell growth at 72 hours: 0.463±0.035
